Test results published in US20080009418A1, “Selective Inhibitors” (Alchemia LTD., priority 2004, published 2008).

Tests used:
Human δ-opioid (DOP) = target: T1, Human δ-opioid (DOP) (Homo sapiens, UniProt P41143); assay: Radioligand binding, human δ-opioid (DOP) membranes, FlashPlate, [3H]-Bremazocine; details: compound at 10 μM; [3H]-Bremazocine
T1 construct: purchased Perkin Elmer Biosignal
Procedure, shortened: (§1)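 Cloned human receptor membranes were coated onto FlashPlate wells and incubated with radioligand and compound (added from a 0.5 mM DMSO daughter plate) for 1 hour at room temperature in the dark. Scintillation counting gave percent inhibition, with DMSO defining total and reference ligand defining non-specific binding.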

Human κ-Opioid (KOP) = target: T2, Human κ-Opioid (KOP) (Homo sapiens, UniProt P41145); assay: Radioligand binding, human κ-opioid (KOP) membranes, filtration, [3H]-Diprenorphine; details: compound at 10 μM; [3H]-Diprenorphine
T2 construct: purchased Perkin Elmer Biosignal
Procedure, shortened: (§2)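 Filtration binding on cloned human receptor membranes (1 Unit/well), [125I]-Substance P for NK1 and [3H]-Diprenorphine for KOP, 1 h at room temperature. Filters PEI-presoaked, washed with cold 50 mM Tris-HCl pH 7.4, counted by scintillation; percent inhibition calculated, reference ligand defining non-specific binding.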

Human Melanocortin (MC3) = target: T3, Human Melanocortin (MC3) (Homo sapiens, UniProt P41968); assay: Radioligand binding, human melanocortin MC3 membranes, FlashPlate, [125I]-NDP-αMSH; details: compound at 10 μM; [125I]-NDP-αMSH
T3 construct: purchased Perkin Elmer Biosignal
Procedure, shortened: as §1

Human Melanocortin (MC4) = target: T4, Human Melanocortin (MC4) (Homo sapiens, UniProt P32245); assay: Radioligand binding, human melanocortin MC4 membranes, FlashPlate, [125I]-NDP-αMSH; details: compound at 10 μM; [125I]-NDP-αMSH
T4 construct: purchased Perkin Elmer Biosignal
Procedure, shortened: as §1

Human melanocortin (MC5) = target: T5, Human melanocortin (MC5) (Homo sapiens, UniProt P33032); assay: Radioligand binding, human melanocortin MC5 membranes, FlashPlate, [125I]-NDP-αMSH; details: compound at 10 μM; [125I]-NDP-αMSH
T5 construct: purchased Perkin Elmer Biosignal
Procedure, shortened: as §1

[1] = target: T6, Human melanin-concentrating hormone (MCH1) (Homo sapiens, UniProt Q99705); assay: Radioligand binding, human melanin-concentrating hormone MCH1 membranes, FlashPlate, [125I]-S36057; details: compound at 10 μM; [125I]-S36057
T6 construct: purchased Perkin Elmer Biosignal
Procedure, shortened: as §1

Human μ-opioid (MOP) = target: T7, Human μ-opioid (MOP) (Homo sapiens, UniProt P35372); assay: Radioligand binding, human μ-opioid (MOP) membranes, FlashPlate, [3H]-Naloxone; details: compound at 10 μM; [3H]-Naloxone
T7 construct: purchased Perkin Elmer Biosignal
Procedure, shortened: as §1

Human neurokinin (NK1) = target: T8, Human neurokinin (NK1) (Homo sapiens, UniProt P25103); assay: Radioligand binding, human neurokinin NK1 membranes, filtration, [125I]-Substance P; details: compound at 10 μM; [125I]-Substance P
T8 construct: purchased Perkin Elmer Biosignal
Procedure, shortened: as §2

[2] = target: T9, Human neuropeptide Y (NPY-Y1) (Homo sapiens, UniProt P25929); assay: Radioligand binding, human neuropeptide Y NPY-Y1 membranes, FlashPlate, [125I]-PYY; details: compound at 10 μM; [125I]-PYY
T9 construct: purchased Perkin Elmer Biosignal
T9 sequence (P25929 1-384): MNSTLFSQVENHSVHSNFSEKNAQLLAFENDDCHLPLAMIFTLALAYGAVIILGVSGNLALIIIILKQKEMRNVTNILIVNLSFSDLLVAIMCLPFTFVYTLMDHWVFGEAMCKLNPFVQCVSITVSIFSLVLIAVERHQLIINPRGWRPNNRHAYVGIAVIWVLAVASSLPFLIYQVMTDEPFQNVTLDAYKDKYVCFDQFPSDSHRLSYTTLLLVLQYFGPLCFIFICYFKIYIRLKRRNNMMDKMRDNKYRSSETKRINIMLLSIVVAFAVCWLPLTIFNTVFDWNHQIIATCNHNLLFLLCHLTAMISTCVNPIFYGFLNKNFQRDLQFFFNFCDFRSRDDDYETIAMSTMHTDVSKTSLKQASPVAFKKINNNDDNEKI
Procedure, shortened: as §1

Human opioid (ORL1) = target: T10, Human opioid (ORL1) (Homo sapiens, UniProt P41146); assay: Radioligand binding, human opioid ORL1 membranes, FlashPlate, [125I]-Nociceptin; details: compound at 10 μM; [125I]-Nociceptin
T10 construct: purchased Perkin Elmer Biosignal
Procedure, shortened: as §1

Mouse urotensin (mUR2) = target: T11, Mouse urotensin (mUR2) (Mus musculus, UniProt Q8VIH9); assay: Radioligand binding, mouse urotensin mUR2 membranes, FlashPlate, [125I]-Urotensin II; details: compound at 10 μM; [125I]-Urotensin II
T11 construct: purchased Perkin Elmer Biosignal
T11 sequence (Q8VIH9 1-385): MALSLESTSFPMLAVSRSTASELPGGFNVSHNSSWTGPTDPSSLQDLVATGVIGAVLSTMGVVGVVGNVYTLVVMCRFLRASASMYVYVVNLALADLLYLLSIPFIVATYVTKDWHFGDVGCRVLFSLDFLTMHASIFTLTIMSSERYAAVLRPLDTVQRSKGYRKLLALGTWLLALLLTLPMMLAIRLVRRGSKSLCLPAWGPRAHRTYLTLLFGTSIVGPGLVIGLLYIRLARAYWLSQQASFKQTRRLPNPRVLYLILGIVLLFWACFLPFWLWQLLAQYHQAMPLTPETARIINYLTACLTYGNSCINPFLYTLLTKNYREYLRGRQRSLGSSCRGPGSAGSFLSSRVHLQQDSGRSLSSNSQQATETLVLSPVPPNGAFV
Procedure, shortened: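 Cloned mouse urotensin (mUR2) receptor membranes from Perkin Elmer Biosignal were immobilized in FlashPlate microplates using a proprietary coating. Each well got 19.5 μl buffer, then 0.5 μl of DMSO, reference ligand, or compound. Adding 5 μl of [125I]-Urotensin II, diluted to 5× final concentration in binding buffer, started binding. Plates were sealed with TopSeal-A and incubated 1 hour at room temperature in the dark. Wells were counted for 30 seconds each on a TopCount after a 60-second delay, and percentage inhibition was calculated.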

T3 sequence (P41968 whole entry): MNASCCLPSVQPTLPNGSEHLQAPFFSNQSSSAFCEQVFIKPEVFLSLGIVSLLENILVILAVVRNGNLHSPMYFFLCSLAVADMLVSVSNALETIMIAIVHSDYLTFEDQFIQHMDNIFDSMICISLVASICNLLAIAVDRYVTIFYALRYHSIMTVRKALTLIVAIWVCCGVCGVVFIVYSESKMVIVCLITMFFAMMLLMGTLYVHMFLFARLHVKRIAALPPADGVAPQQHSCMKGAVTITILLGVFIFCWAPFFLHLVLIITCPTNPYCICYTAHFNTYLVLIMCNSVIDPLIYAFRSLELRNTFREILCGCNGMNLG
T6 sequence (Q99705 whole entry): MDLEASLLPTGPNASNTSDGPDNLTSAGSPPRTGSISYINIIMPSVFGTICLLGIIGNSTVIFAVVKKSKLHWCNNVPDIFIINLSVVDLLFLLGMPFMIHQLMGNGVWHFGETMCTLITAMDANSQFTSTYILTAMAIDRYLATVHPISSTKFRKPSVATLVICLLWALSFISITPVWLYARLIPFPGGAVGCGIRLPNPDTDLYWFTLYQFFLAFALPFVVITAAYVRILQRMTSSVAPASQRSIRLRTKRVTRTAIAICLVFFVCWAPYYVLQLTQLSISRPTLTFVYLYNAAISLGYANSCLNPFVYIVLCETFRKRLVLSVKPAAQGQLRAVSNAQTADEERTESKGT
T1 sequence (P41143 whole entry): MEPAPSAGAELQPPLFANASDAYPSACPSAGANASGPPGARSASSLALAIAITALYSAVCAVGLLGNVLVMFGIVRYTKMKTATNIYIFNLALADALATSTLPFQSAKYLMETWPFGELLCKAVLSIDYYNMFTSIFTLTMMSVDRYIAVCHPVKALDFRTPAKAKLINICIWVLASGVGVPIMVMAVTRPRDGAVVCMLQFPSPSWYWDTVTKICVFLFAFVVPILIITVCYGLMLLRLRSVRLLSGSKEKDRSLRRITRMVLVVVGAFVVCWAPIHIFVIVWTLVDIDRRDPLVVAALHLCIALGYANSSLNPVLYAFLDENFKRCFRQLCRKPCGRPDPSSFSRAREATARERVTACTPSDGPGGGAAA
T4 sequence (P32245 whole entry): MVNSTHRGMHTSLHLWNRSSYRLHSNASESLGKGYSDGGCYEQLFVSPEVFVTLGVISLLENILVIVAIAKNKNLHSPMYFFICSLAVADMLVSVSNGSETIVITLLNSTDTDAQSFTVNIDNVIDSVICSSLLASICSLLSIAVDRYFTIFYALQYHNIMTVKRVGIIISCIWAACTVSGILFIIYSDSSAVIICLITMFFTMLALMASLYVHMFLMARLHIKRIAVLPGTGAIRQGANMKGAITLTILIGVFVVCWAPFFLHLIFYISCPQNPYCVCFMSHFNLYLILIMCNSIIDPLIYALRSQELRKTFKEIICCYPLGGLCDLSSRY
T10 sequence (P41146 whole entry): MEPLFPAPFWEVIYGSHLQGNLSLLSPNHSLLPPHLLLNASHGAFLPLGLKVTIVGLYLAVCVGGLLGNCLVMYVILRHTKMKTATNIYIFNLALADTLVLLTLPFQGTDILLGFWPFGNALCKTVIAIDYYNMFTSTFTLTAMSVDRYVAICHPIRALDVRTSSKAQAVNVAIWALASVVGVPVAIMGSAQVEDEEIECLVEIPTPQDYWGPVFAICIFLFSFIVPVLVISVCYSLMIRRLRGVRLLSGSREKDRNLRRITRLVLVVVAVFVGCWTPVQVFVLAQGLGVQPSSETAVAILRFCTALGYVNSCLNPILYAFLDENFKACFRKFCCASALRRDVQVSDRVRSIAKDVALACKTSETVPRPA
T2 sequence (P41145 whole entry): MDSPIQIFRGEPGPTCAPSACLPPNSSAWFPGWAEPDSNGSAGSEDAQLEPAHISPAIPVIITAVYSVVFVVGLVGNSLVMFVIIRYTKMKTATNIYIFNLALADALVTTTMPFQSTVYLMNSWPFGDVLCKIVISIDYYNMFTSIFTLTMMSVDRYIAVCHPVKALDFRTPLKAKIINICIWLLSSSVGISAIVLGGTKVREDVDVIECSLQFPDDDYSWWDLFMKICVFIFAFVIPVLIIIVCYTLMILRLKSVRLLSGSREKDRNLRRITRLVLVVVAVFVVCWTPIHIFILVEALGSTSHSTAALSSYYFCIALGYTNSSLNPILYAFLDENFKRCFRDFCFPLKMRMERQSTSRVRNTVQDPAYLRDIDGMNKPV
T8 sequence (P25103 whole entry): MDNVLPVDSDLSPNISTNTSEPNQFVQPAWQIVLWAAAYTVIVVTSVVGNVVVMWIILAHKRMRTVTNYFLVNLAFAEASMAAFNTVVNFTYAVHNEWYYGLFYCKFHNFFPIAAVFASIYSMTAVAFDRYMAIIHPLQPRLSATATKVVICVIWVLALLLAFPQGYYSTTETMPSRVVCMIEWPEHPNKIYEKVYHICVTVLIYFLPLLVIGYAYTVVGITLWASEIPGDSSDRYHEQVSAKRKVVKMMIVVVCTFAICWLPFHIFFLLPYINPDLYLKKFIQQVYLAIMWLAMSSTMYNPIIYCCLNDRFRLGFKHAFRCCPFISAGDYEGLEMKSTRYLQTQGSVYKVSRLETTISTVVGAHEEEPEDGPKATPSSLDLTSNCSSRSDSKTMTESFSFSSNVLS
T5 sequence (P33032 whole entry): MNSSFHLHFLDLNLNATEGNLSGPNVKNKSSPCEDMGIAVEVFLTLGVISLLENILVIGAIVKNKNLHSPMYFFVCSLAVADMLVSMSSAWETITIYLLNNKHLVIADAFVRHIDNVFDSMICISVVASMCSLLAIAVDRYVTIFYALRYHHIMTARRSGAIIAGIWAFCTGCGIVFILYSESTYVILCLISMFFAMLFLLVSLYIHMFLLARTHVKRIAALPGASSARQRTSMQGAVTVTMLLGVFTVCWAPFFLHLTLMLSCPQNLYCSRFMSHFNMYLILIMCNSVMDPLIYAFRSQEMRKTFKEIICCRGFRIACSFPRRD
T7 sequence (P35372 whole entry): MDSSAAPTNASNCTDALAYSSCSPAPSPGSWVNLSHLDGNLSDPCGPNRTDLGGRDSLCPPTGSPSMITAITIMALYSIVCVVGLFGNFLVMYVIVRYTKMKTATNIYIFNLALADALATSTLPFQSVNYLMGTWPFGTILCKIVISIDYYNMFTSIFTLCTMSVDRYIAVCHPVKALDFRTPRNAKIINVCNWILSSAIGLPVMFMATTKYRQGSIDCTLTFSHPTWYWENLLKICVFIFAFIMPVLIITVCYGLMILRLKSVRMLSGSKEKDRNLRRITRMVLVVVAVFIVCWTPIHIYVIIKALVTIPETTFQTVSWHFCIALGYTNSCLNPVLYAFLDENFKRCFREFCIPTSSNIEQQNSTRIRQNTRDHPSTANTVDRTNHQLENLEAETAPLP

SMILES	A1: inhibition of radioligand binding, human δ-opioid (DOP) (Human δ-opioid (DOP))	A2: inhibition of radioligand binding, human κ-opioid (KOP) (Human κ-Opioid (KOP))	A3: inhibition of radioligand binding, human melanocortin (MC3) (Human Melanocortin (MC3))	A4: inhibition of radioligand binding, human melanocortin (MC4) (Human Melanocortin (MC4))	A5: inhibition of radioligand binding, human melanocortin (MC5) (Human melanocortin (MC5))	A6: inhibition of radioligand binding, human melanin-concentrating hormone (MCH1) [1]	A7: inhibition of radioligand binding, human μ-opioid (MOP) (Human μ-opioid (MOP))	A8: inhibition of radioligand binding, human neurokinin (NK1) (Human neurokinin (NK1))	A9: inhibition of radioligand binding, human neuropeptide Y (NPY-Y1) [2]	A10: inhibition of radioligand binding, human opioid (ORL1) (Human opioid (ORL1))	A11: inhibition of radioligand binding, mouse urotensin (mUR2) (Mouse urotensin (mUR2))
CSC1OC(COCc2cccc(N)c2)C(O)C(OCc2ccc(Cl)cc2)C1NC(=O)c1ccccc1 (stereo not shown) [compound 332]	− (“−” indicates less than 50% inhibition at 10 μM)	− (“−” indicates less than 50% inhibition at 10 μM)	− (“−” indicates less than 50% inhibition at 10 μM)	− (“−” indicates less than 50% inhibition at 10 μM)	− (“−” indicates less than 50% inhibition at 10 μM)	− (“−” indicates less than 50% inhibition at 10 μM)	− (“−” indicates less than 50% inhibition at 10 μM)	+ (“+” indicates greater than 50% inhibition at 10 μM)	− (“−” indicates less than 50% inhibition at 10 μM)	− (“−” indicates less than 50% inhibition at 10 μM)	− (“−” indicates less than 50% inhibition at 10 μM)
CSC1OC(COCc2cccc(N)c2)C(O)C(OCc2ccc(Cl)cc2)C1NC(=O)Cc1ccccc1 (stereo not shown) [compound 333]	− (“−” indicates less than 50% inhibition at 10 μM)	− (“−” indicates less than 50% inhibition at 10 μM)	− (“−” indicates less than 50% inhibition at 10 μM)	− (“−” indicates less than 50% inhibition at 10 μM)	− (“−” indicates less than 50% inhibition at 10 μM)	− (“−” indicates less than 50% inhibition at 10 μM)	− (“−” indicates less than 50% inhibition at 10 μM)	+ (“+” indicates greater than 50% inhibition at 10 μM)	− (“−” indicates less than 50% inhibition at 10 μM)	− (“−” indicates less than 50% inhibition at 10 μM)	− (“−” indicates less than 50% inhibition at 10 μM)
CSC1OC(COCc2cccc(N)c2)C(O)C(OCc2ccc(Cl)cc2)C1NC(=O)c1c[nH]c2ccccc12 (stereo not shown) [compound 334]	− (“−” indicates less than 50% inhibition at 10 μM)	− (“−” indicates less than 50% inhibition at 10 μM)	− (“−” indicates less than 50% inhibition at 10 μM)	− (“−” indicates less than 50% inhibition at 10 μM)	− (“−” indicates less than 50% inhibition at 10 μM)	− (“−” indicates less than 50% inhibition at 10 μM)	− (“−” indicates less than 50% inhibition at 10 μM)	+ (“+” indicates greater than 50% inhibition at 10 μM)	− (“−” indicates less than 50% inhibition at 10 μM)	− (“−” indicates less than 50% inhibition at 10 μM)	− (“−” indicates less than 50% inhibition at 10 μM)
COC[C@H]1OC(OCc2ccc3ccccc3c2)[C@H](NC(=O)CCCN)[C@@H](OCc2ccc(-c3ccccc3)cc2)[C@@H]1O (stereo partly shown) [compound 337]	− (“−” indicates less than 50% inhibition at 10 μM)	− (“−” indicates less than 50% inhibition at 10 μM)	− (“−” indicates less than 50% inhibition at 10 μM)	− (“−” indicates less than 50% inhibition at 10 μM)	+ (“+” indicates greater than 50% inhibition at 10 μM)	+ (“+” indicates greater than 50% inhibition at 10 μM)	+ (“+” indicates greater than 50% inhibition at 10 μM)	+ (“+” indicates greater than 50% inhibition at 10 μM)	− (“−” indicates less than 50% inhibition at 10 μM)	− (“−” indicates less than 50% inhibition at 10 μM)	− (“−” indicates less than 50% inhibition at 10 μM)
COC[C@H]1OC(OCc2ccc3ccccc3c2)[C@H](NC(=O)CCCN)[C@@H](OCc2ccc3ccccc3c2)[C@@H]1O (stereo partly shown) [compound 338]	− (“−” indicates less than 50% inhibition at 10 μM)	− (“−” indicates less than 50% inhibition at 10 μM)	− (“−” indicates less than 50% inhibition at 10 μM)	− (“−” indicates less than 50% inhibition at 10 μM)	− (“−” indicates less than 50% inhibition at 10 μM)	− (“−” indicates less than 50% inhibition at 10 μM)	+ (“+” indicates greater than 50% inhibition at 10 μM)	+ (“+” indicates greater than 50% inhibition at 10 μM)	− (“−” indicates less than 50% inhibition at 10 μM)	− (“−” indicates less than 50% inhibition at 10 μM)	− (“−” indicates less than 50% inhibition at 10 μM)
